Usually IC50 stands for the concentration that inhibits the measured activity by half. Read a low IC50 as greater potency in that assay.

The test deals with T1, DCLK1 (Doublecortin-like kinase 1) (Homo sapiens, UniProt O15075).
T1 sequence (O15075 1-740): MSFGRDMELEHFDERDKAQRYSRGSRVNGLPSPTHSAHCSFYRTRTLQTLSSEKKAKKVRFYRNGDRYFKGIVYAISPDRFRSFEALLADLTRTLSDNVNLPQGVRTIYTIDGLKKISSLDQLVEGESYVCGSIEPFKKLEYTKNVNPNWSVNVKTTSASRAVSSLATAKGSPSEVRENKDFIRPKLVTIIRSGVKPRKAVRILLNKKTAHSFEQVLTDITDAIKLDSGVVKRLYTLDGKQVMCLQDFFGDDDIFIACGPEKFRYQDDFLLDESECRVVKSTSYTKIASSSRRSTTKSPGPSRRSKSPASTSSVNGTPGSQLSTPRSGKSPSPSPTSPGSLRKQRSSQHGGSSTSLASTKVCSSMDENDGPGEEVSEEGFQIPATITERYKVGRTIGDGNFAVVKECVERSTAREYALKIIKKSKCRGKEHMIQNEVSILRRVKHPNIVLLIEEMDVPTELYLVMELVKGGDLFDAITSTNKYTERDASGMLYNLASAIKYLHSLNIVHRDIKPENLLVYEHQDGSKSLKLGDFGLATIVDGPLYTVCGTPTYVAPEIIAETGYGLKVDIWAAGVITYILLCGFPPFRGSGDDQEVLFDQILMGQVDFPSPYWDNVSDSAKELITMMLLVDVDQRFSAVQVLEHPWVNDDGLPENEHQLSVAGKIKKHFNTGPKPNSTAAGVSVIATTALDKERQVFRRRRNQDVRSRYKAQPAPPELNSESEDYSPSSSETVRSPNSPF
Nature of the test: DCLK1 kinase activity assay, dose response. In kind it is biochemical.

Compound `COc1cc(N2CCN(C)CC2)ccc1Nc1ncc2c(n1)N(C)c1ccccc1C(=O)N2CC(F)(F)F` [DCLK1-IN-1] gave an IC50 of 143 nM.

Values taken from paper PMC9330537, “DCLK1 promotes colorectal cancer stemness and aggressiveness via the XRCC5/COX2 axis” (Theranostics, 2022).
